Patent publication US9402398B2, “Herbicidal compounds” (SYNGENTA PARTICIPATIONS AG, priority 2012, dated 2016)

Columns and labels:
Format in all cases: in vivo
[1] = tested on: Alopecurus myosuroides (ALOMY); assay: Herbicidal glasshouse test, post-emergence; conditions: post-emergence (sprayed after 8 days cultivation), 1000 g/h, evaluated after 13 days
Experimental: (§1) Seeds of a variety of test species are sown in standard soil in pots (Alopecurus myosuroides (ALOMY), Setaria faberi (SETFA), Echinochloa crus-galli (ECHCG), Solanum nigrum (SOLNI), Amaranthus retoflexus (AMARE), Ipomoea hederacea (IPOHE)). After cultivation for one day (pre-emergence) or after 8 days cultivation (post-emergence) under controlled conditions in a glasshouse (at 24/16° C., day/night; 14 hours light; 65% humidity), the plants are sprayed with an aqueous spray solution derived from the formulation of the technical active ingredient in acetone/water (50:50) solution containing 0.5% Tween 20 (polyoxyethelyene sorbitan monolaurate, CAS RN 9005-64-5). Compounds are applied at 1000 g/h. The test plants are then grown in a glasshouse under controlled conditions in a glasshouse (at 24/16° C., day/night; 14 hours light; 65% humidity) and watered twice daily. After 13 days for pre and post-emergence, the test is evaluated for the percentage damage caused to the plant. The biological activities are shown in the following table on a five point scale (5=80-100%; 4=60-79%; 3=40-59%; 2=20-39%; 1=0-19%).

[2] = tested on: Amaranthus retoflexus (AMARE); assay: Herbicidal glasshouse test, post-emergence; conditions: post-emergence (sprayed after 8 days cultivation), 1000 g/h, evaluated after 13 days
Experimental: as §1

[3] = tested on: Echinochloa crus-galli (ECHCG); assay: Herbicidal glasshouse test, post-emergence; conditions: post-emergence (sprayed after 8 days cultivation), 1000 g/h, evaluated after 13 days
Experimental: as §1

[4] = tested on: Ipomoea hederacea (IPOHE); assay: Herbicidal glasshouse test, post-emergence; conditions: post-emergence (sprayed after 8 days cultivation), 1000 g/h, evaluated after 13 days
Experimental: as §1

Setaria faberi (SETFA) [5] = assay: Herbicidal glasshouse test, post-emergence; conditions: post-emergence (sprayed after 8 days cultivation), 1000 g/h, evaluated after 13 days
Experimental: as §1

Solanum nigrum (SOLNI) [6] = assay: Herbicidal glasshouse test, post-emergence; conditions: post-emergence (sprayed after 8 days cultivation), 1000 g/h, evaluated after 13 days
Experimental: as §1

[7] = tested on: Alopecurus myosuroides (ALOMY); assay: Herbicidal glasshouse test, pre-emergence; conditions: pre-emergence (sprayed after cultivation for one day), 1000 g/h, evaluated after 13 days
Experimental: as §1

[8] = tested on: Amaranthus retoflexus (AMARE); assay: Herbicidal glasshouse test, pre-emergence; conditions: pre-emergence (sprayed after cultivation for one day), 1000 g/h, evaluated after 13 days
Experimental: as §1

[9] = tested on: Echinochloa crus-galli (ECHCG); assay: Herbicidal glasshouse test, pre-emergence; conditions: pre-emergence (sprayed after cultivation for one day), 1000 g/h, evaluated after 13 days
Experimental: as §1

[10] = tested on: Ipomoea hederacea (IPOHE); assay: Herbicidal glasshouse test, pre-emergence; conditions: pre-emergence (sprayed after cultivation for one day), 1000 g/h, evaluated after 13 days
Experimental: as §1

Setaria faberi (SETFA) [11] = assay: Herbicidal glasshouse test, pre-emergence; conditions: pre-emergence (sprayed after cultivation for one day), 1000 g/h, evaluated after 13 days
Experimental: as §1

Solanum nigrum (SOLNI) [12] = assay: Herbicidal glasshouse test, pre-emergence; conditions: pre-emergence (sprayed after cultivation for one day), 1000 g/h, evaluated after 13 days
Experimental: as §1

| SMILES | percentage damage caused to the plant, five point scale, POST Application ALOMY [1] | percentage damage caused to the plant, five point scale, POST Application AMARE [2] | percentage damage caused to the plant, five point scale, POST Application ECHCG [3] | percentage damage caused to the plant, five point scale, POST Application IPOHE [4] | percentage damage caused to the plant, five point scale, POST Application SETFA (Setaria faberi (SETFA) [5]) | percentage damage caused to the plant, five point scale, POST Application SOLNI (Solanum nigrum (SOLNI) [6]) | percentage damage caused to the plant, five point scale, PRE Application ALOMY [7] | percentage damage caused to the plant, five point scale, PRE Application AMARE [8] | percentage damage caused to the plant, five point scale, PRE Application ECHCG [9] | percentage damage caused to the plant, five point scale, PRE Application IPOHE [10] | percentage damage caused to the plant, five point scale, PRE Application SETFA (Setaria faberi (SETFA) [11]) | percentage damage caused to the plant, five point scale, PRE Application SOLNI (Solanum nigrum (SOLNI) [12]) |
| --- | --- | --- | --- | --- | --- | --- | --- | --- | --- | --- | --- | --- |
| CCOc1ccc(-n2nc(C)cc(C(=O)Nc3nnnn3C)c2=O)cc1 [Compound 1.010] | 5 (5=80-100%) | 5 (5=80-100%) | 5 (5=80-100%) | 5 (5=80-100%) | 5 (5=80-100%) | 5 (5=80-100%) | 5 (5=80-100%) | 5 (5=80-100%) | 5 (5=80-100%) | 4 (4=60-79%) | 5 (5=80-100%) | 5 (5=80-100%) |
| Cc1cc(C(=O)Nc2nnnn2C)c(=O)n(-c2cc(Cl)cc(Cl)c2)n1 [Compound 1.005] | 5 (5=80-100%) | 5 (5=80-100%) | 5 (5=80-100%) | 5 (5=80-100%) | 5 (5=80-100%) | 5 (5=80-100%) | 5 (5=80-100%) | 5 (5=80-100%) | 5 (5=80-100%) | 5 (5=80-100%) | 5 (5=80-100%) | 5 (5=80-100%) |
| CCc1ccc(-n2nc(C)cc(C(=O)Nc3nnnn3C)c2=O)cc1 [Compound 1.011] | 5 (5=80-100%) | 5 (5=80-100%) | 5 (5=80-100%) | 5 (5=80-100%) | 5 (5=80-100%) | 5 (5=80-100%) | 5 (5=80-100%) | 5 (5=80-100%) | 5 (5=80-100%) | 4 (4=60-79%) | 5 (5=80-100%) | 5 (5=80-100%) |
| Cc1cc(C(=O)Nc2nnnn2C)c(=O)n(-c2cccc(C#N)c2)n1 [Compound 1.018] | 5 (5=80-100%) | 5 (5=80-100%) | 5 (5=80-100%) | 5 (5=80-100%) | 5 (5=80-100%) | 5 (5=80-100%) | 5 (5=80-100%) | 5 (5=80-100%) | 5 (5=80-100%) | 5 (5=80-100%) | 5 (5=80-100%) | 5 (5=80-100%) |
| C=Cc1ccc(-n2nc(C)cc(C(=O)Nc3nnnn3C)c2=O)cc1 [Compound 1.008] | 5 (5=80-100%) | 5 (5=80-100%) | 5 (5=80-100%) | 5 (5=80-100%) | 5 (5=80-100%) | 5 (5=80-100%) | 5 (5=80-100%) | 5 (5=80-100%) | 4 (4=60-79%) | 2 (2=20-39%) | 5 (5=80-100%) | 5 (5=80-100%) |
